Data taken from patent US20190322676A1, “CERAMIDE GALACTOSYLTRANSFERASE INHIBITORS FOR THE TREATMENT OF DISEASE” (BioMarin Pharmaceutical Inc., priority 2016, published 2019).
pIC50: −log10 of the molar value. Where a name gives a salt, the structure may show the parent alone.

What follows are molecules tested against T1, human CGT (ceramide galactosyltransferase), CHO/CGT lysate (Homo sapiens, UniProt Q16880) (assay: CGT enzyme assay, LC-MS/MS readout (Table 1 ranges without asterisk)). Conditions: LC-MS/MS method (range without asterisk).
T1 construct: Full-length human CGT cDNA was cloned into the BamH1/Xho1 site of pcDNA3.1 (+); expressed in transfected cells; host or cells: Chinese hamster ovary (CHO) cells; lysate prepared with M-PER
T1 sequence (Q16880 21-541): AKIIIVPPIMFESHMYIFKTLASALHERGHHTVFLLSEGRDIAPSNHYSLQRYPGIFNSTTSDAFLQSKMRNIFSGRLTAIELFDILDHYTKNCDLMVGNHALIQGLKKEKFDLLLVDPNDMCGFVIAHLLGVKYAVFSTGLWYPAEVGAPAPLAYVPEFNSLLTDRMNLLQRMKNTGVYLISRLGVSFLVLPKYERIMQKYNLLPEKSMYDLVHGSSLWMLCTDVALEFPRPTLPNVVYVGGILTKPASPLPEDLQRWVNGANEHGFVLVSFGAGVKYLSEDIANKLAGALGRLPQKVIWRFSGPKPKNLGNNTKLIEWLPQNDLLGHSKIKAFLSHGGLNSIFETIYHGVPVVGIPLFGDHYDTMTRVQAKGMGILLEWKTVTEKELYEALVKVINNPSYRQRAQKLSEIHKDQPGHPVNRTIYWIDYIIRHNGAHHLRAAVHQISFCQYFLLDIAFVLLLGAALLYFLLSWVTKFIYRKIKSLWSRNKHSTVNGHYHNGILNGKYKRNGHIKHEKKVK
Format: biochemical
Method: Full-length human CGT cDNA was cloned into the BamH1/Xho1 site of pcDNA3.1 (+) mammalian expression vector (V90-20, Invitrogen, Carlsbad, Calif.) and the plasmid was transfected into Chinese hamster ovary (CHO) cells. Lysate was prepared using M-PER (Mammalian Protein Extraction Reagent, ThermoFisher Scientific, Grand Island, N.Y.) in the presence of a protease inhibitor cocktail (P8340, Sigma, Saint Louis, Mo.). Each 100 mm dish (100% confluent, approximately 1×10^7 cells) was lysed with 250 μL of M-PER containing protease inhibitors. Protein concentration was determined using a Pierce BCA protein assay kit (ThermoFisher Scientific). Four micrograms of CHO/CGT lysate was incubated with various concentrations of a compound (0.001 μM-50 μM) in 10 mM HEPES (pH 7.2) containing 35 μM dioleoylphosphatidylcholine, 5 mM MgCl2, 5 mM MnCl2, 1% BSA, 15 mM KCl, 1 mM EGTA, 8 mM CHAPS, 10 μM C6-NBD-dihydro-ceramide and 17.5 μM UDP-galactose in a final reaction volume of 20 μL at 37° C. for 1 hour. The final concentration of DMSO was 0.5% in both compound-treated and mock-treated samples. Tween 80 (0.01%) was optionally added to the reaction mixture to help solubilize the compounds. Each individual reaction was diluted with 80 μL of methanol:acetronitrile (1:3) containing 5 μM N-docdecanoyl-NBD-galactosylceramide (internal standard) to stop the reaction. 200 μL H2O:acetonitile (1:1) was added to precipitate the protein. After sufficient mixing, the plates were centrifuged at 2469 g for 38 minutes, 200 μL of supernatant was transferred to a LC/MS 96-deep well plate and a second spin was performed at 2469 g for 10 minutes. The final supernatant was injected in triplicate for RapidFire/MS/MS analysis.
An alternative LC-MS/MS based method was also used. For the LC-MS/MS readout, the CGT assay was identical to the one described above except for the following: […] was used as the CGT enzyme source, C12:0 (2R—OH) ceramide was used as the ceramide substrate and 0.3 μM Cl2 ceramide was used as the internal standard. Tween 80 was not present in the reaction mixture. The final supernatant was injected for LC-MS/MS analysis.
Quantitative analysis using the LC-MS/MS method: The quantitative analysis of C12:0 (2R—OH) ceramide and C12:0 (2R—OH) galactosylceramide by LC-MS/MS was performed on a Shimadzu ultra-fast liquid chromatography (Shimadzu, Japan) coupled with API 4000 mass spectrometer (Applied Biosystems, Concord, Ontario, Canada). Analyst 1.5 software packages (Applied Biosystems) were used to control the LC-MS/MS system, as well as for data acquisition and processing. 10 μL of sample was loaded onto a Luna C18 column (50 mm×2.0 mm, I.D. 3 μm, 100A) (Phenomenex, USA) for chromatographic separation. Mobile phase A consisted of HPLC grade water with 0.1% formic acid (v/v) and mobile phase B consisted of acetonitrile supplemented with 0.1% formic acid (v/v). The separation was achieved using the following gradient program at a flow rate of 0.8 mL/min: the initial mobile phase was 70% B, which was increased in a linear fashion to 95% B in 1.50 min, and then maintained at 95% B until 3.50 min. The mobile phase was then reset to 70% B within 0.01 min, and maintained until 4.50 min. The total run time was 4.50 min. The MS/MS detection was performed in ESI positive mode. The mass transition selected for quantification was m/z 498.5-264.3 for C12:0 (2R—OH) ceramide under the collision energy of 38.8 V, and the mass transition of C12:0 (2R—OH) galactosylceramide was m/z 660.6-264.5 under the collision energy of 51 V. The mass transition of Cl2 ceramide which was used as internal standard was m/z 482.4-264.3 under the collision energy of 33V. Compound IC50 values were calculated using a protocol identical to the one described for the RapidFire method (see Table 1, where data ranges without an asterix correspond to analysis using the LC-MS/MS method).
Using the above CGT enzyme and CGT cellular assays, the compounds of Table 1 were tested. […]

SMILES | pIC50
CC(C)Oc1ccc2cc(S(=O)(=O)N[C@@H](C(=O)N3C4CCC3CC(N)C4)C(F)(F)c3ccc(Br)cc3)ccc2c1 (stereo partly drawn) [Compound 1-2, N-((2S)-3-(3-amino-8-azabicyclo[3.2.1]octan-8-yl)-1-(4-bromophenyl)-1,1-difluoro-3-oxopropan-2-yl)-6-isopropoxynaphthalene-2-sulfonamide] | 4.52 to 5.00
CCC(CC)COc1ccc(S(=O)(=O)N[C@H](C(=O)N2C3CCC2CC(N)C3)C(F)(F)c2ccc(Br)cc2)cc1 (stereo partly drawn) [Compound 2-1, N-((2R)-3-(3-amino-8-azabicyclo[3.2.1]octan-8-yl)-1-(4-bromophenyl)-1,1-difluoro-3-oxopropan-2-yl)-4-(2-ethylbutoxy)benzenesulfonamide] | 5.00 to 6.00
CCC(CC)COc1ccc(S(=O)(=O)N[C@@H](C(=O)N2C3CCC2CC(N)C3)C(F)(F)c2ccc(Br)cc2)cc1 (stereo partly drawn) [Compound 2-2, N-((2S)-3-(3-amino-8-azabicyclo[3.2.1]octan-8-yl)-1-(4-bromophenyl)-1,1-difluoro-3-oxopropan-2-yl)-4-(2-ethylbutoxy)benzenesulfonamide] | 4.00 to 4.52
NC1CC2CCC(C1)N2C(=O)C(NS(=O)(=O)c1ccc(-c2ccc(F)cc2)cc1)C(F)(F)c1ccc(Br)cc1 (stereo not drawn) [Compound 3, N-(3-(3-amino-8-azabicyclo[3.2.1]octan-8-yl)-1-(4-bromophenyl)-1,1-difluoro-3-oxopropan-2-yl)-4′-fluoro-[1,1′-biphenyl]-4-sulfonamide] | 4.52 to 5.00
NC1CC2CCC(C1)N2C(=O)[C@H](NS(=O)(=O)c1ccc(-c2ccc(F)cc2)cc1)C(F)(F)c1ccc(Br)cc1 (stereo partly drawn) [Compound 3-2, N-((2S)-3-(3-amino-8-azabicyclo[3.2.1]octan-8-yl)-1-(4-bromophenyl)-1,1-difluoro-3-oxopropan-2-yl)-4′-fluoro-[1,1′-biphenyl]-4-sulfonamide] | 4.00 to 4.52
CC(C)Oc1ccc2cc(CCS(=O)(=O)NC(C(=O)N3C4CCC3CC(N)C4)C(F)(F)c3ccc(Br)cc3)ccc2c1 (stereo not drawn) [Compound 4, N-(3-(3-amino-8-azabicyclo[3.2.1]octan-8-yl)-1-(4-bromophenyl)-1,1-difluoro-3-oxopropan-2-yl)-2-(6-isopropoxynaphthalen-2-yl)ethanesulfonamide trifluoroacetate] | 4.52 to 5.00
NC1CC2CCC(C1)N2C(=O)C(NS(=O)(=O)c1ccc2cc(OC3CCCC3)ccc2c1)C(F)(F)c1ccc(Br)cc1 (stereo not drawn) [Compound 5, N-(3-(3-amino-8-azabicyclo[3.2.1]octan-8-yl)-1-(4-bromophenyl)-1,1-difluoro-3-oxopropan-2-yl)-6-(cyclopentyloxy)naphthalene-2-sulfonamide trifluoroacetate] | 5.00 to 6.00
NC1CC2CCC(C1)N2C(=O)[C@H](NS(=O)(=O)c1ccc2cc(OC3CCCC3)ccc2c1)C(F)(F)c1ccc(Br)cc1 (stereo partly drawn) [Compound 5-2, N-((2S)-3-(3-amino-8-azabicyclo[3.2.1]octan-8-yl)-1-(4-bromophenyl)-1,1-difluoro-3-oxopropan-2-yl)-6-(cyclopentyloxy)naphthalene-2-sulfonamide trifluoroacetate] | 5.00 to 6.00
CCCCOc1ccc2cc(S(=O)(=O)N[C@H](C(=O)N3C4CCC3CC(N)C4)C(F)(F)c3ccc(Br)cc3)ccc2c1 (stereo partly drawn) [Compound 6-1, N-((2R)-3-(3-amino-8-azabicyclo[3.2.1]octan-8-yl)-1-(4-bromophenyl)-1,1-difluoro-3-oxopropan-2-yl)-6-butoxynaphthalene-2-sulfonamide trifluoroacetate] | 5.00 to 6.00
CCCCOc1ccc2cc(S(=O)(=O)N[C@@H](C(=O)N3C4CCC3CC(N)C4)C(F)(F)c3ccc(Br)cc3)ccc2c1 (stereo partly drawn) [Compound 6-2, N-((2S)-3-(3-amino-8-azabicyclo[3.2.1]octan-8-yl)-1-(4-bromophenyl)-1,1-difluoro-3-oxopropan-2-yl)-6-butoxynaphthalene-2-sulfonamide trifluoroacetate] | 4.00 to 4.52
CC(C)COc1ccc2cc(S(=O)(=O)N[C@H](C(=O)N3C4CCC3CC(N)C4)C(F)(F)c3ccc(Br)cc3)ccc2c1 (stereo partly drawn) [Compound 7-1, N-((2R)-3-(3-amino-8-azabicyclo[3.2.1]octan-8-yl)-1-(4-bromophenyl)-1,1-difluoro-3-oxopropan-2-yl)-6-isobutoxynaphthalene-2-sulfonamide] | 5.00 to 6.00
CC(C)COc1ccc2cc(S(=O)(=O)N[C@@H](C(=O)N3C4CCC3CC(N)C4)C(F)(F)c3ccc(Br)cc3)ccc2c1 (stereo partly drawn) [Compound 7-2, N-((2S)-3-(3-amino-8-azabicyclo[3.2.1]octan-8-yl)-1-(4-bromophenyl)-1,1-difluoro-3-oxopropan-2-yl)-6-isobutoxynaphthalene-2-sulfonamide] | 4.00 to 4.52
CC(C)Oc1ccc2cc(S(=O)(=O)N[C@@H](C(=O)N3C4CCC3CC(N)C4)C(F)(F)c3ccc(Cl)cc3)ccc2c1 (stereo partly drawn) [Compound 8-2, N-((2S)-3-(3-amino-8-azabicyclo[3.2.1]octan-8-yl)-1-(4-chlorophenyl)-1,1-difluoro-3-oxopropan-2-yl)-6-isopropoxynaphthalene-2-sulfonamide trifluoroacetate] | 4.52 to 5.00

Each molecule was assayed against T1, human CGT (ceramide galactosyltransferase), CHO/CGT lysate (assay: CGT enzyme assay, RapidFire/MS/MS readout with 0.01% Tween added (Table 1 ranges with two asterisks **)). Conditions: CGT enzyme assay, RapidFire/MS/MS method with 0.01% Tween added (range with two asterisks **).
Format: biochemical
Outline: (§1)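 IC50s come from variable-slope dose-response fits of internal-standard-normalized C6-NBD-dihydro-galactosylceramide, measured by RapidFire/MS/MS (ESI negative). Reactions: 1 h, 37 °C, human CGT-expressing CHO lysate (4 μg), 0.001–50 μM compound, 10 μM NBD-dihydro-ceramide, 17.5 μM UDP-galactose, 0.5% DMSO, pH 7.2; 0.01% Tween 80 added for ** values.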

SMILES | pIC50
NC1CC2CCC(C1)N2C(=O)[C@@H](NC(=O)[C@@H](O)c1ccc2cc(OC3CCCC3)ccc2c1)C(F)(F)c1ccc(-c2ccc(Cl)cc2)cc1 (stereo partly drawn) [Compound 136-3, (2S)—N-((2R)-3-(3-amino-8-azabicyclo[3.2.1]octan-8-yl)-1-(4′-chloro-[1,1′-biphenyl]-4-yl)-1,1-difluoro-3-oxopropan-2-yl)-2-(6-(cyclopentyloxy)naphthalen-2-yl)-2-hydroxyacetamide trifluoroacetate] | 5.00 to 6.00

The molecules below were run against T1, human CGT (ceramide galactosyltransferase), CHO/CGT lysate (assay: CGT enzyme assay, RapidFire/MS/MS readout (Table 1 ranges with one asterisk *)). Conditions: RapidFire method (range with one asterisk *).
Format: biochemical
Outline: as §1

SMILES | pIC50
NC1CC2CCC(C1)N2C(=O)[C@@H](NC(=O)[C@@H](O)c1ccc2cc(OC3CCCC3)ccc2c1)C(F)(F)c1ccc(-c2ccc(Cl)cc2)cc1 (stereo partly drawn) [Compound 136-3, (2S)—N-((2R)-3-(3-amino-8-azabicyclo[3.2.1]octan-8-yl)-1-(4′-chloro-[1,1′-biphenyl]-4-yl)-1,1-difluoro-3-oxopropan-2-yl)-2-(6-(cyclopentyloxy)naphthalen-2-yl)-2-hydroxyacetamide trifluoroacetate] | 5.00 to 6.00
